One test deals with T1, CGRP receptor (SK-N-MC membrane) (Homo sapiens, UniProt O60894+Q16602).
T1 construct: Purified SK-N-MC membrane was purchased from Perkin Elmer; purchased Perkin Elmer; host or cells: SK-N-MC membrane
T1 sequence (Q16602 23-461): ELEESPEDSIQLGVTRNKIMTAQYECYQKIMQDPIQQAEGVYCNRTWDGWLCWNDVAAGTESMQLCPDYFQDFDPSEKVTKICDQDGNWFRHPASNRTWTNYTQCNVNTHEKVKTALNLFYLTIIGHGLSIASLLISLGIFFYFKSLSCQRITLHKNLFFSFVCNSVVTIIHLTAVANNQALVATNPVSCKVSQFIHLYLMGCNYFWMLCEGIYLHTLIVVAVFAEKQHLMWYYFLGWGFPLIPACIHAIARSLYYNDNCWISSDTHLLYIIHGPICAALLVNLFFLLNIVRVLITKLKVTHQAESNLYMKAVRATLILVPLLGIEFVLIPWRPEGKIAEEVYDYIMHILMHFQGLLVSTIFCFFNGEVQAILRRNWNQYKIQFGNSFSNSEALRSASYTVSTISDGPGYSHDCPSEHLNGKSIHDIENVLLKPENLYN
T1 sequence (O60894 27-148): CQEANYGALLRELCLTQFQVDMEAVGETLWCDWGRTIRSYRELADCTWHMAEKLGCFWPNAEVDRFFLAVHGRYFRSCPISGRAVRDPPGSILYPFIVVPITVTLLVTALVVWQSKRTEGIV
Put plainly: I125-CGRP binding displacement assay on purified SK-N-MC membrane.
Details: not given
As for the experimental part: Purified SK-N-MC membrane was purchased from Perkin Elmer. The membrane was thawed quickly and placed on ice. The compounds were diluted with CGRP binding solution (25 mM Tris-HCl, pH7.4, 5 mM MgCl2, 0.1% BSA and 0.05% Tween). The membrane was diluted 1:20 with the binding solution and homogenized with Tissue Matster-50 Homogenizer (Omni International) for 30 sec. The homogenized membrane was added to compounds in the binding solution. […] After 2 hour incubation at room temperature, the reaction was stopped by rapid filtration through 0.5% PEI treated GF/C filter plate (Perkin Elmer) and the filter plate was washed with ice-cold washing solution (50 mM Tris HCl, pH7.4, 5 mM MgCl2 and 0.1% BSA) using cell harvestor (Tomtec). The radioactivity of the filter plates were read on Topcount (Packard). The nonspecific binding was determined in the control reaction where 1 uM unlabelled CGRP was preincubated with the membrane prior to I125-CGRP addition. The total binding was determined in the control reaction of the membrane and I125-CGRP in the absence of compound. The percent displacement of I125-CGRP with compounds was calculated using nonspecific and total binding controls. The curve fitting was carried out using MOD3.
For `CC(C)(C)CCN1C(=O)[C@H](CC(=O)N2CCC(N3CCc4ccccc4NC3=O)CC2)SC1c1cccc(F)c1N1CCN(C2CCC2)CC1` (some centres unmarked) [Compound 543], the Ki was less than 1000 nM.

`CC(C)(C)CCN1C(=O)[C@H](CC(=O)N2CCC(n3c(=O)[nH]c4ncccc43)CC2)S[C@H]1c1cccc(F)c1C1CCNCC1` [Compound 555]: the Ki was less than 1000 nM.

Regarding `CC(C)CN1CCN(c2ccccc2[C@H]2S[C@@H](CC(=O)N3CCC(N4CCc5ccccc5NC4=O)CC3)C(=O)N2CCC(C)(C)C)C(=O)C1` [Compound 541], the Ki is less than 1000 nM.

Compound `CC(C)(C)CCN1C(=O)[C@H](CC(=O)N2CCC(n3c(=O)[nH]c4ncccc43)CC2)S[C@H]1c1cccc(F)c1N1CCN(C(C)(C)C)CC1` [Compound 436] showed a Ki of less than 1000 nM.

As to `CC(C)(C)CCN1C(=O)[C@H](CC(=O)N2CCC(N3CCc4ccccc4NC3=O)CC2)SC1c1cccc(F)c1N1CCC(c2ccncc2)CC1` (some centres unmarked) [Compound 557], the Ki is less than 1000 nM.

Consider `CC(C)CCN1C(=O)C(CC(=O)N2CCC(n3c(=O)[nH]c4ccccc43)CC2)S[C@H]1c1ccccc1N1CCC(O)CC1` (some centres unmarked) [Compound 304], for which the Ki was less than 1000 nM.

Compound `CC(C)(C)CCN1C(=O)[C@H](CC(=O)N2CCC(N3CCc4ccccc4NC3=O)CC2)SC1c1cccc(F)c1C1CCN(C2CCC2)CC1` (some centres unmarked) [Compound 558] returned a Ki of less than 1000 nM.

Compound `CN(C)[C@H]1CCN(c2ccccc2C2SC(CC(=O)N3CCC(n4c(=O)[nH]c5ncccc54)CC3)C(=O)N2CCC(C)(C)C)C1` (some centres unmarked) [Compound 406] registered a Ki of less than 1000 nM.

In the next test the target is endogenous CGRP receptor (Homo sapiens, UniProt O60894+Q16602). The experiment in a line: CGRP functional antagonism using SK-N-MC-BLA (4C10), β-lactamase transcriptional reporter assay. The format is cell-based. The conditions noted are these: SK-N-MC (4C10) cells, inhibition of β-lactamase expression in the presence of 200 pM CGRP.
Chain of endogenous CGRP receptor (Q16602 23-461): as the sequence (Q16602 23-461) above
Chain of endogenous CGRP receptor (O60894 27-148): as the sequence (O60894 27-148) above
As for `CC(C)(C)CCN1C(=O)[C@H](CC(=O)N2CCC(N3CCc4ccccc4NC3=O)CC2)SC1c1cccc(F)c1N1CCN(C2CCC2)CC1` (some centres unmarked) [Compound 543], the IC50 is less than 1000 nM.

With `CC(C)(C)CCN1C(=O)[C@H](CC(=O)N2CCC(n3c(=O)[nH]c4ncccc43)CC2)S[C@H]1c1cccc(F)c1C1CCNCC1` [Compound 555], the IC50 fell in the range of 1000 to 5000 nM.

On to `CC(C)CN1CCN(c2ccccc2[C@H]2S[C@@H](CC(=O)N3CCC(N4CCc5ccccc5NC4=O)CC3)C(=O)N2CCC(C)(C)C)C(=O)C1` [Compound 541], for which the IC50 was less than 1000 nM.

For the compound `CC(C)(C)CCN1C(=O)[C@H](CC(=O)N2CCC(n3c(=O)[nH]c4ncccc43)CC2)S[C@H]1c1cccc(F)c1N1CCN(C(C)(C)C)CC1` [Compound 436], the IC50 was less than 1000 nM.

As to `O=C(CC1SC(c2c(F)cccc2F)N(CC2CCCCC2)C1=O)N1CCC(N2Cc3ccccc3NC2=O)CC1` (centres unmarked) [Compound 210], the IC50 is less than 1000 nM.

With `CC(C)N1C(=O)C(CC(=O)N2CCC(N3CCc4ccccc4NC3=O)CC2)SC1c1ccccc1` (centres unmarked) [Compound 24], the IC50 fell in the range of 1000 to 5000 nM.

With `CC(C)CCN1C(=O)C(CC(=O)N2CCC(N3Cc4ccccc4NC3=O)CC2)SC12CCC2` (centres unmarked) [Compound 275], the IC50 was more than 5000 nM.

As for `CC(C)CCN1C(=O)C(CC(=O)N2CCC3(CC2)OC(=O)Nc2ccccc23)SC1c1ccccc1` (centres unmarked) [Compound 223], the IC50 is more than 5000 nM.

As for `CC(C)N1CCN(c2c(F)cccc2[C@@H]2S[C@@H](CC(=O)N3CCC(N4CCc5ccccc5NC4=O)CC3)C(=O)N2CCC(C)(C)C)CC1` [Compound 395], the IC50 is more than 5000 nM.

With `CCCCN1CCN(c2ccccc2C2SC(CC(=O)N3CCC(n4c(=O)[nH]c5ncccc54)CC3)C(=O)N2CCC(C)(C)C)CC1` (centres unmarked) [Compound 366], the IC50 was less than 1000 nM.

Take `CN(C)CCCN(C)c1ccccc1C1SC(CC(=O)N2CCC(n3c(=O)[nH]c4ncccc43)CC2)C(=O)N1CCC(C)(C)C` (centres unmarked) [Compound 382]: the IC50 was less than 1000 nM.

On to `CC(=O)N1CC2(CCN(C(=O)CC3SC(c4ccccc4)N(CCC(C)C)C3=O)CC2)c2cc(C(C)C)ccc21` (centres unmarked) [Compound 27], for which the IC50 is more than 5000 nM.

For the compound `CC(C)N1CCN(c2ncccc2C2S[C@@H](CC(=O)N3CCC(n4c(=O)[nH]c5ncccc54)CC3)C(=O)N2CCC(C)(C)C)CC1` (some centres unmarked) [Compound 443], the IC50 was less than 1000 nM.

On to `CCCCCCCC1SC(CC(=O)N2CCC(N3CCc4ccccc4NC3=O)CC2)C(=O)N1CCC(C)C` (centres unmarked) [Compound 74], for which the IC50 was in the range of 1000 to 5000 nM.

With `CN1CCN(c2cccc(C3SC(CC(=O)N4CCC(N5CCc6ccccc6NC5=O)CC4)C(=O)N3CCC(C)(C)C)c2)CC1` (centres unmarked) [Compound 412], the IC50 is less than 1000 nM.

Consider `O=C(CC1SC(Cc2ccccc2)N(CC(F)(F)F)C1=O)N1CCC(n2cc(-c3ccccc3)[nH]c2=O)CC1` (centres unmarked) [Compound 189], for which the IC50 was more than 5000 nM.

On to `CCOCCCN1C(=O)C(CC(=O)N2CCC(N3CCc4ccccc4NC3=O)CC2)SC1c1ccccc1` (centres unmarked) [Compound 4], for which the IC50 was less than 1000 nM.

In the case of `CN1CCC(N2CCN(c3ccccc3C3SC(CC(=O)N4CCC(n5c(=O)[nH]c6ncccc65)CC4)C(=O)N3CCC(C)(C)C)CC2)CC1` (centres unmarked) [Compound 381], the IC50 is more than 5000 nM.

For the compound `CC(C)CCN1C(=O)C(CC(=O)N2CCC(c3cc4ccccc4[nH]c3=O)CC2)SC1c1ccccc1` (centres unmarked) [Compound 249], the IC50 is less than 1000 nM.

Turning to `CC(C)N1CCN(c2c(F)cccc2C2S[C@@](C)(CC(=O)N3CCC(n4c(=O)[nH]c5ncccc54)CC3)C(=O)N2CCC(C)(C)C)CC1` (some centres unmarked) [Compound 445], the IC50 lay within 1000 to 5000 nM.

In the case of `CC(C)CCN1C(=O)C(CC(=O)N2CCC(N3Cc4ccccc4NC3=O)CC2)SC1CC(C)(C)C` (centres unmarked) [Compound 276], the IC50 was 1000 to 5000 nM.

As to `CC(C)CCN1C(=O)C(CC(=O)N2CCC(NC(=O)Nc3ccccn3)CC2)SC1c1ccccc1` (centres unmarked) [Compound 200], the IC50 is more than 5000 nM.

With `CN(C)C1CCN(c2ccccc2C2SC(CC(=O)N3CCC(n4c(=O)[nH]c5ncccc54)CC3)C(=O)N2CCC(C)(C)C)CC1` (centres unmarked) [Compound 418], the IC50 is more than 5000 nM.

Consider `CC(C)(C)CCN1C(=O)C(CC(=O)N2CCC(N3CCc4ccccc4NC3=O)CC2)SC1c1cccc(F)c1N1CC(F)(C2CC2)C1` (centres unmarked) [Compound 411], for which the IC50 lay in the range of 1000 to 5000 nM.

On to `CC(=O)N1CC2(CCN(C(=O)CC3SC(c4ccccc4)N(CCC(C)C)C3=O)CC2)c2cc(C(F)(F)F)ccc21` (centres unmarked) [Compound 131], for which the IC50 was more than 5000 nM.

With `CC(C)CCN1C(=O)C(CC(=O)N2CCC(N3Cc4ccccc4NC3=O)CC2)SC1C(C)(C)C` (centres unmarked) [Compound 75], the IC50 is 1000 to 5000 nM.

Consider `CC(C)(C)CCN1C(=O)C(CC(=O)N2CCC(N3Cc4ccccc4NC3=O)CC2)SC1c1ccccc1F` (centres unmarked) [Compound 252], for which the IC50 is less than 1000 nM.

On to `COC(=O)[C@@H](CC(C)C)N1C(=O)C(CC(=O)N2CCC(N3Cc4ccccc4NC3=O)CC2)SC1c1ccccc1` (some centres unmarked) [Compound 178], for which the IC50 was in the range of 1000 to 5000 nM.

In the case of `CC(C)CCN1C(=O)C(CC(=O)N2CCC(n3cc(-c4ccccc4)[nH]c3=O)CC2)SC1c1ccc(Cl)cc1` (centres unmarked) [Compound 112], the IC50 is more than 5000 nM.

Consider `CCCN1C(=O)C(CC(=O)N2CCC(N3CCc4ccccc4NC3=O)CC2)SC1c1ccccc1` (centres unmarked) [Compound 38], for which the IC50 was less than 1000 nM.

Turning to `O=C(CC1SC(c2ccccc2)N(CC2CC2)C1=O)N1CCC(N2CCc3ccccc3NC2=O)CC1` (centres unmarked) [Compound 138], the IC50 is less than 1000 nM.

As to `CN1CCN(c2ccccc2[C@H]2SC(CC(=O)N3CCC(n4c(=O)[nH]c5ncccc54)CC3)C(=O)N2CCC(C)(C)C)CC1` (some centres unmarked) [Compound 47], the IC50 is less than 1000 nM.

Turning to `CN1CCCN(c2ccccc2C2SC(CC(=O)N3CCC(N4CCc5ccccc5NC4=O)CC3)C(=O)N2CCC(C)(C)C)CC1` (centres unmarked) [Compound 370], the IC50 is less than 1000 nM.

On to `CN1CCN(c2ccccc2[C@H]2S[C@](C)(CC(=O)N3CCC(N4CCc5ccccc5NC4=O)CC3)C(=O)N2CCC(C)(C)C)CC1` [Compound 377], for which the IC50 fell in the range of 1000 to 5000 nM.

As to `CC(C)CCN1C(=O)C(CC(=O)N2CCC3(CC2)C(=O)NCN3c2ccccc2)SC1c1ccccc1` (centres unmarked) [Compound 186], the IC50 was more than 5000 nM.

As to `CC(=O)C1(c2ccccc2)CCN(C(=O)CC2SC(c3ccccc3)N(CCC(C)C)C2=O)CC1` (centres unmarked) [Compound 141], the IC50 was more than 5000 nM.

As for `CN1CCN(c2c(F)cccc2C2SC(CC(=O)N3CCC(n4cc(-c5ccccc5)[nH]c4=O)CC3)C(=O)N2CCC(C)(C)C)CC1` (centres unmarked) [Compound 325], the half-maximal inhibitory concentration (IC50) was less than 1000 nM.

With `CCC(CC)C1SC(CC(=O)N2CCC(N3CCc4ccccc4NC3=O)CC2)C(=O)N1CCC(C)C` (centres unmarked) [Compound 207], the IC50 was less than 1000 nM.

Consider `CN1C(=O)C(CC(=O)N2CCC(N3Cc4ccccc4NC3=O)CC2)SC1c1ccccc1` (centres unmarked) [Compound 273, 3,4-Dihydro-3-(1-(2-(3-methyl-4-oxo-2-phenylthiazolidin-5-yl)acetyl)piperidin-4-yl)quinazolin-2(1H)-one], for which the IC50 was 1000 to 5000 nM.

Regarding `CN1CCCN(c2ccccc2C2SC(CC(=O)N3CCC(N4Cc5ccccc5NC4=O)CC3)C(=O)N2CCC(C)(C)C)CC1` (centres unmarked) [Compound 369], the half-maximal inhibitory concentration (IC50) was in the range of 1000 to 5000 nM.

With `CC(C)(C)CCN1C(=O)[C@H](CC(=O)N2CCC(N3CCc4ccccc4NC3=O)CC2)SC1c1cccc(F)c1N1CCNCC1` (some centres unmarked) [Compound 399], the IC50 is more than 5000 nM.

Take `CC(C)CCN1C(=O)C(CC(=O)N2CCC(N3CCc4ccccc4NC3=O)CC2)SC1Cc1ccccc1` (centres unmarked) [Compound 98]: the IC50 was 1000 to 5000 nM.

Turning to `CC(C)(C)CCN1C(=O)C(CC(=O)N2CCC(N3Cc4ccccc4NC3=O)CC2)SC1(C)c1ccccc1` (centres unmarked) [Compound 312], the IC50 was less than 1000 nM.

Regarding `CC(C)CCN1C(=O)C(CC(=O)N2CCC(N3CCc4ccccc4NC3=O)CC2)SC1c1cccnc1N1CCOCC1` (centres unmarked) [Compound 125], the IC50 was less than 1000 nM.

As for `CC(C)(C)CCN1C(=O)C(CC(=O)N2CCC(N3CCc4ccccc4NC3=O)CC2)SC12CCCCCC2` (centres unmarked) [Compound 57], the IC50 is less than 1000 nM.

As for `CC(C)CCN1C(=O)C(CC(=O)N2CCC(N3CCc4ccccc4NC3=O)CC2)SC1[C@H](C)c1ccccc1` (some centres unmarked) [Compound 180], the IC50 was 1000 to 5000 nM.

For `CN1CCN(c2ccccc2[C@H]2SC(CC(=O)N3CCC(n4c(=O)[nH]c5ccccc54)CC3)C(=O)N2CCC(C)(C)C)CC1` (some centres unmarked) [Compound 22], the IC50 lay within 1000 to 5000 nM.

Turning to `CC(C)(C)CCN1C(=O)C(CC(=O)N2CCC(N3CCc4ccccc4NC3=O)CC2)SC1c1ncc[nH]1` (centres unmarked) [Compound 314], the IC50 is more than 5000 nM.

These data come from patent publication US8163737B2 (Vertex Pharmaceuticals Incorporated, priority 2006, dated 2012).
